ChEMBL document CHEMBL1133452, “Identification of novel purine and pyrimidine cyclin-dependent kinase inhibitors with distinct molecular interactions and tumor cell growth inhibition profiles” (J Med Chem, 2000)

What was measured:
[1] = system: NCI; experiment: cells; conditions: Homo sapiens, read-out: Mean GI50
Description: Inhibition of NCI cell line proliferation

[2] = target: Cyclin-dependent kinase 2 (Homo sapiens, UniProt P24941); experiment: Inhibition of Cyclin-dependent kinase 2 enzyme from starfish oocytes; set-up: species or system Marthasterias glacialis, Oocyte
[3] = target: Cyclin-dependent kinase 1/cyclin B (Homo sapiens, UniProt O95067+P06493+P14635+Q8WWL7); experiment: Inhibition of Cyclin-dependent kinase 1 enzyme from starfish oocytes; set-up: species or system Marthasterias glacialis, Oocyte
Sequence of Cyclin-dependent kinase 1/cyclin B (P06493 whole entry): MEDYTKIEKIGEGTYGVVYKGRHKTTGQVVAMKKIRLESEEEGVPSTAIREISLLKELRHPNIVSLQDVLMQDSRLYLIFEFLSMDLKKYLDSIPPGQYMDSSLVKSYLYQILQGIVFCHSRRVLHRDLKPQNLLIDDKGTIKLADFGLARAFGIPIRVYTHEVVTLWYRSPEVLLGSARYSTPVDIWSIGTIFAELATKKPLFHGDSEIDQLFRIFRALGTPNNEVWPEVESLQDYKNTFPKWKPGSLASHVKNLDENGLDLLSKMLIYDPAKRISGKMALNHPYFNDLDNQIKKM
Sequence of Cyclin-dependent kinase 1/cyclin B (P14635 whole entry): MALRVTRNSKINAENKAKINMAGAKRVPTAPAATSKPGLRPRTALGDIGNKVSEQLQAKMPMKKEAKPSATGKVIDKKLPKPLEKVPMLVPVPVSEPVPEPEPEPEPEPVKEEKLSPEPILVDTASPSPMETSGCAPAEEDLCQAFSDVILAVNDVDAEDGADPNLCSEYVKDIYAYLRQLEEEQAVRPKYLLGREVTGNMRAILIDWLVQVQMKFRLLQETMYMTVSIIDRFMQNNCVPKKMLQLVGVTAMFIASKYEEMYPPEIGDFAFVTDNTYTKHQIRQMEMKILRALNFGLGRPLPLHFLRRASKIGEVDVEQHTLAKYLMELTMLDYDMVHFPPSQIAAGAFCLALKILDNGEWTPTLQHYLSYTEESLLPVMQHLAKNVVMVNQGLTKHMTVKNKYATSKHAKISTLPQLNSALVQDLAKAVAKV
Sequence of Cyclin-dependent kinase 1/cyclin B (Q8WWL7 whole entry): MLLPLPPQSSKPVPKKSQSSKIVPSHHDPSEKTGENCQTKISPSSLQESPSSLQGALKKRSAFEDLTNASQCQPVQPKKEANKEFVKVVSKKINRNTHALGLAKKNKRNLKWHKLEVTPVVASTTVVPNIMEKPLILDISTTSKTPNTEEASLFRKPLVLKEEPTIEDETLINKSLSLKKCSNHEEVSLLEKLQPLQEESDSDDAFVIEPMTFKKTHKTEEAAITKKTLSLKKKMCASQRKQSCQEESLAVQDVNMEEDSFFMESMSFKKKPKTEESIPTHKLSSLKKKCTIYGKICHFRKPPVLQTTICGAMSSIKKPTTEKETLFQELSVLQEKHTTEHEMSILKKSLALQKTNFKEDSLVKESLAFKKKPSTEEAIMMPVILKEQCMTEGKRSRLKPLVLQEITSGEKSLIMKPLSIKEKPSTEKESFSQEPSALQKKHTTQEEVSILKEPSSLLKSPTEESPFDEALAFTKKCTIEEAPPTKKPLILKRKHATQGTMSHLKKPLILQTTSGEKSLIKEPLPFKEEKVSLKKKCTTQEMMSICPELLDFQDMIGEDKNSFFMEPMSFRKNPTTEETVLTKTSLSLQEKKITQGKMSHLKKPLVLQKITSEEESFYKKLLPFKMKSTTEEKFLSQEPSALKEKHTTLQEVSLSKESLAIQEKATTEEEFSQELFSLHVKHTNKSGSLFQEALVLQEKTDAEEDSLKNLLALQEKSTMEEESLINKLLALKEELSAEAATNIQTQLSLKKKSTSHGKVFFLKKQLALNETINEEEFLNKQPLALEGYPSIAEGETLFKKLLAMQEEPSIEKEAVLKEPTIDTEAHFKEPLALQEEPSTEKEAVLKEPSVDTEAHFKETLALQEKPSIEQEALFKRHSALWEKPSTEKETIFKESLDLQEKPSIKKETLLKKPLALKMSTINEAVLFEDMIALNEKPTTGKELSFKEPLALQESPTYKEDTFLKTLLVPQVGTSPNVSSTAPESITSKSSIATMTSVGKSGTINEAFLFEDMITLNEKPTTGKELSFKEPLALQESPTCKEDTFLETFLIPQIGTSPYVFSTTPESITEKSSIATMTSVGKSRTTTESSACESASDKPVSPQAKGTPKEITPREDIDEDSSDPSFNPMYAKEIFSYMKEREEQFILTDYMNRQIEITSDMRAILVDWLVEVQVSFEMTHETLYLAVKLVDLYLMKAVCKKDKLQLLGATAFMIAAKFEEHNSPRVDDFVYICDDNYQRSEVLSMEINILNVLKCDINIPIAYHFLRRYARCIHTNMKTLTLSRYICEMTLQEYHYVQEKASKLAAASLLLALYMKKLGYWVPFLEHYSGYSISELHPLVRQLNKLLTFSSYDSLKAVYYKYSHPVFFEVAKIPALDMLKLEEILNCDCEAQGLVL
Sequence of Cyclin-dependent kinase 1/cyclin B (O95067 whole entry): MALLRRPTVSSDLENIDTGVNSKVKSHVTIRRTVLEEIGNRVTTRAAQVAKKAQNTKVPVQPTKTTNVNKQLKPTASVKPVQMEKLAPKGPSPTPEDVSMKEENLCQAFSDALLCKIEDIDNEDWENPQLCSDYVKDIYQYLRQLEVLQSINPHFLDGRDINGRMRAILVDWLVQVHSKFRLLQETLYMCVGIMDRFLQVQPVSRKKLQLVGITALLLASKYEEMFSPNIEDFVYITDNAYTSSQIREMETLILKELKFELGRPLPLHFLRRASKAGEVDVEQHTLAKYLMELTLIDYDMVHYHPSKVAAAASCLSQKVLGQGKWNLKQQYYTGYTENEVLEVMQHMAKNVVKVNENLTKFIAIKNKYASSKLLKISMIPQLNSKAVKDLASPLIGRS

Structure (SMILES): c1nc(OCC2CCCCC2)c2nc[nH]c2n1
- GI50 [1]: 55 µM
- IC50 [2]: 13 µM

Structure (SMILES): Cn1cnc2c(OCC3CCCCC3)nc(N)nc21
- GI50 [1]: > 100 µM
- IC50 [2]: > 100 µM

Structure (SMILES): Nc1cc(OCC2CCCCC2)nc(N)n1
- IC50 [3]: > 10 µM
- GI50 [1]: > 100 µM
- IC50 [2]: > 10 µM
